This note sets out measurements from ChEMBL document CHEMBL6127016, “Design and synthesis of dual functional NBD-fluorophore-incorporated naphthalene diimide derivatives as G-quadruplex ligands” (Bioorg Med Chem Lett, 2024).

Calls of active or inactive are those of the source. The calls are words filed in the database; no cut-off is given here.

The subject of experiment [1] is Quadruplex DNA. The experiment is described as follows: Binding affinity to human telomeric G-quadruplex HT21 DNA assessed as increase in fluorescence intensity at 5 uM by fluorescence emission spectra analysis. Format: nucleic-acid assay.
Experiment [2] concerns Quadruplex DNA. As to the kind of experiment: Binding affinity to human telomeric G-quadruplex HT21 DNA assessed as increase in CD signal at 15 uM at 235 nm wavelength by circular dichroism spectroscopic analysis. The class given is nucleic-acid assay.
A further experiment relates to MIA PaCa-2. The experiment is described as follows: Cytotoxicity against human MIA PaCa-2 cells assessed as inhibition of cell growth by CellTiter-Glo assay. The class given is functional, cell-based.
Experiment [3] concerns Quadruplex DNA. As to the kind of experiment: Binding affinity to human telomeric G-quadruplex HT21 DNA assessed as increase in CD signal at 15 uM at 290 nm wavelength by circular dichroism spectroscopic analysis. The class given is nucleic-acid assay. On the technique in general: CD spectra are sensitive to the conformation of chiral molecules.
In experiment [4] the test system is Quadruplex DNA. As to the kind of experiment: Binding affinity to human telomeric G-quadruplex HT21 DNA assessed as increase in CD signal at 15 uM at 250 nm wavelength by circular dichroism spectroscopic analysis. Format: nucleic-acid assay.
Experiment [5] deals with Quadruplex DNA. As to the kind of experiment: Binding affinity to human telomeric G-quadruplex HT21 DNA assessed as dissociation constant by fluorescence titration spectra analysis. The class given is nucleic-acid assay.

Usually IC50 stands for the concentration that gives 50% inhibition. In general, Kd refers to the constant that tells how readily two partners part at equilibrium. With `O=C1c2ccc3c4c(c(NCCN5CCN(c6ccc([N+](=O)[O-])c7nonc67)CC5)cc(c24)C(=O)N1CCCN1CCOCC1)C(=O)N(CCCN1CCOCC1)C3=O`, the result in the experiment with Quadruplex DNA [1] and in the experiment with Quadruplex DNA [3] was Active. Besides, the outcome in the experiment with Quadruplex DNA [2] and in the experiment with Quadruplex DNA [4] was inactive. In the experiment with MIA PaCa-2, the half-inhibitory concentration (IC50) came to 77.9 nM. The Kd on Quadruplex DNA [5] was determined as 1720 nM.

`O=C(CNc1cc2c3c(ccc4c3c1C(=O)N(CCCN1CCOCC1)C4=O)C(=O)N(CCCN1CCOCC1)C2=O)NCC1CCN(c2ccc([N+](=O)[O-])c3nonc23)CC1`: the outcome in the experiment with Quadruplex DNA [1] was Active. In the experiment on MIA PaCa-2, the IC50 is 364 nM. Also, at Quadruplex DNA [5], the Kd amounted to 600 nM.

With `O=C1c2ccc3c4c(c(NCCN5CCCC5)cc(c24)C(=O)N1CCCN1CCOCC1)C(=O)N(CCCN1CCOCC1)C3=O`, in the experiment on MIA PaCa-2, the IC50 is 9.6 nM.

As for `O=C1c2ccc3c4c(c(NCC5CCN(c6ccc([N+](=O)[O-])c7nonc67)CC5)cc(c24)C(=O)N1CCCN1CCOCC1)C(=O)N(CCCN1CCOCC1)C3=O`, in the experiment on Quadruplex DNA [1], the result was inactive. The IC50 with MIA PaCa-2 was 359 nM.
